Measured values from patent US9730905B2, “Monounsaturated fatty acid for preventing and/or treating skin complexion imperfections” (L'OREAL, priority 2010, dated 2017).

System: skin tissue
Assay: Inventors' demonstration of the effect of monounsaturated fatty acids on skin tissue and complexion
Details: in vivo

Question: With `CCCCCCCCCCC/C=C\CCCCC(=O)O` [petroselinic acid] as the compound, how does the “restoration of normal skin tissue / complexion” value read?
Answer: lead to a restoration of normal skin tissue in perfect homeostasis
